Data taken from patent publication US11572351B1, “Bis-Schiff base compositions and formulations” (Systima Technologies, Inc., priority 2016, dated 2023).

Columns and labels:
[1] = Viscosity stability during 4 hour isothermal dwell at 120° C., parallel plate rheometer; format: physicochemical; settings: isothermal 120° C., viscosity stayed 150 to 200 cP
Experimental: (§1) In some embodiments, the chemical composition may have a low viscosity, such as below about 100,000 cP at temperatures below 170° C. The viscosity may be measured by rotational rheometry by acquiring viscosity versus temperature curves on a parallel plate rheometer, commercially available from TA Instruments (New Castle, Del.) at a controlled strain of 0.01% and an angular frequency of 10.00 radians per second (rad/s) by heating samples at a rate of 2° C. per minute to the isothermal temperature specified. In one or more embodiments, the chemical composition may have a melt viscosity of less than or equal to 500 cP at 125° C. as measured by rotation rheometry. In one or more embodiments, the chemical composition may have a melt viscosity of less than or equal to 100,000 cP at 125° C. as measured by rotation rheometry. For instance, the chemical composition may have a melt viscosity of from 10,000 to 100,000 cP, from 40,000 to 80,000 cP, or from 20,000 to 50,000 cP at 125° C. In some particular embodiments, the chemical composition may have an extremely low viscosity at less than 200° C., such as less than 500 cP. In some particular embodiments, the chemical composition may have a melt viscosity of from 100 to 500 cP, from 200 to 400 cP, or from 300 to 500 cP at 125° C. […]

[2] = Melt viscosity versus temperature, parallel plate rheometer, temperature ramp; format: physicochemical; settings: ramp 2° C. per minute, strain 0.01%, 10.00 rad/s; processing window about 100° C. up to at least 200° C.
Experimental: as §1

period of time of stable low melt viscosity [1] | viscosity (melt flow viscosity) [2] | SMILES
at least 4 hours | less than 1000 cP | C(=N\c1cccc(Oc2cccc(Oc3cccc(/N=C/c4ccco4)c3)c2)c1)/c1ccco1 [Example 2]
at least 4 hours | less than 1000 cP | C(=N\c1ccc(Oc2cccc(Oc3ccc(/N=C/c4ccco4)cc3)c2)cc1)/c1ccco1 [Example 1]
